Data published in PMC6445123 (Scientific Reports, 2019).
Several values for one entry are separate records, joined by “and”; a condition that tells them apart may be missing. Equal entries are not always repeated.

Biological target: T1, Casp6-L200A-LS-SS (Homo sapiens, UniProt P55212, L200A)
T1 construct: obtained by co-expression and purification of LS and SS subunits of WT, L200A or K284A Casp6 from E. coli; His (C); made in house; host or cells: E. coli BL21(DE3)pLysS
T1 sequence (P55212 24-179 limits assumed): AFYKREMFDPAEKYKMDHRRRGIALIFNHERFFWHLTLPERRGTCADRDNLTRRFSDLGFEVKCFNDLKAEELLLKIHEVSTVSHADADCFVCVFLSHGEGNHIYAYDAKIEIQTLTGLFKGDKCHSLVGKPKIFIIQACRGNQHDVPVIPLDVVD
T1 sequence (P55212 194-293 L200A limits assumed): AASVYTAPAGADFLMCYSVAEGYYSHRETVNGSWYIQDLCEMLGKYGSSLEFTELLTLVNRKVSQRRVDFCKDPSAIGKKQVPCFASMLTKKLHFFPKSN
Assay: C13 dose-response and global-fit kinetics on Casp6-L200A-LS-SS
Format: biochemical
Description: Figure 4 Compounds S10G and C13 inhibit Casp6 through a noncompetitive mode of inhibition. (a) Michaelis-Menten kinetic plots of Casp6 enzymatic activity in presence of 1% DMSO or increasing doses S10G (top) and C13 (bottom). Data points represent mean ± SD of three independent experiments. (b) Lineweaver-Burk plots of Casp6 inhibition with S10G (top) and C13 (bottom). Red circle indicates the point where lines converge. (c) The relationship between the slopes of lines in Lineweaver-Burk plot analyses in panel (b) and inhibitor concentration. (d) Plots of IC50 values for S10G (top) and C13 (bottom) with varying concentrations of Ac-VEID-AFC substrate. Data points represent mean ± SD from three independent experiments for each substrate concentration. (e) Binding model of C13 into CASP6 putative allosteric site, derived from molecular docking. Left: C13 (green sticks) occupies the putative allosteric site (white surface and lines; Ala-mutated residues L200 and K284 shown as purple sticks). Right: predicted interactions with Casp6 allosteric pocket residues (pink balls polar, circled blue or red for basic and acidic, respectively. Green balls = hydrophobic. Dotted-arrow: blue and green for backbone and sidechain hydrogen-bond interactions, respectively. Blue shade = solvent exposed area). Dose-response curves of C13 for Casp6-WT and Casp6-K284A (f), and copurified LS and SS of Casp6-WT-LS-SS, Casp6-L200A-LS-SS, and Casp6-K284A-LS-SS (g). Data represent mean ± SD from at least three independent experiments. (h) Global fit of kinetics data to a noncompetitive (mixed) inhibition model for Casp6-WT-LS-SS (left panel, R^2 = 0.9635), Casp6-L200A-LS-SS (middle panel, R^2 = 0.9699), and Casp6-K284A-LS-SS (right panel, R^2 = 0.9794) in the presence of 0–50 µM C13. Data points on the graph represent the mean ± SD, and calculated Ki values represent mean ± standard error (SE) from three independent experiments.
To determine the importance of C13 interactions with L200 and K284 for C13 binding in the Casp6 allosteric pocket, we have generated Casp6-L200A and Casp6-K284A mutants and investigated inhibition with C13. […]
Compounds, S10G (2.5 µM, 4.2 µM, 10 µM), and C13 (5 µM, 14 µM, 50 µM), were added to 20 nM active site titrated Casp6 and enzyme activity was measured with eight different Ac-VEID-AFC substrate concentrations (5.0 μM–200 μM) using fluorescence-based Casp6 activity assay as above. The apparent KM and Vmax values were determined through nonlinear regression analysis of Michaelis-Menten plots (v vs. [S]) using GraphPad Prism 5. The inhibition mode was determined from the pattern of converging Lineweaver-Burk plots (1/v vs. 1/[S])[54]. […]

COC(=O)c1cc(CNC(=O)C2Cc3ccccc3O2)cc(NC(=O)c2ccco2)c1 (stereo not shown) [Compound C13]
fold lower IC50 for Casp6-L200A-LS-SS compared to Casp6-WT-LS-SS: 1.4 fold | inhibition model (best global fit), Casp6-L200A-LS-SS (Ac-VEID-AFC hydrolysis, increasing substrate and C13 concentrations): noncompetitive (mixed) model inhibition | IC50 (copurified LS and SS, read-out: IC50 of C13 for Casp6-L200A-LS-SS (Fig. 4g)): 23.4 ± 4.5 µM | Ki (global fit to noncompetitive (mixed) model, 0–50 µM C13, mean ± SE): 6.82 µM and 6.8 µM
